# Measured values taken from PMC549046 (Comparative Hepatology, 2005).
# Values joined by “and” are separate entries in the source; they are usually repeats but may differ in a detail not shown here. Equal entries are not always repeated. “Also recorded” adds a separate entry of the source. Where two headings read alike, the source gives them in different places. Marks after values point to notes of the source that are not given here.
# Columns and labels:
# [1] = molecular target: T1, CYP1A (Gadus morhua, UniProt A0ACE1MZ74); assay: In vitro inhibition of CYP1A-mediated EROD activity in pooled liver microsomes; conditions: both, Atlantic cod (Gadus morhua); for Ki: hepatic microsomal CYP1A (EROD) activity
# T1 sequence (A0ACE1MZ74 1-519): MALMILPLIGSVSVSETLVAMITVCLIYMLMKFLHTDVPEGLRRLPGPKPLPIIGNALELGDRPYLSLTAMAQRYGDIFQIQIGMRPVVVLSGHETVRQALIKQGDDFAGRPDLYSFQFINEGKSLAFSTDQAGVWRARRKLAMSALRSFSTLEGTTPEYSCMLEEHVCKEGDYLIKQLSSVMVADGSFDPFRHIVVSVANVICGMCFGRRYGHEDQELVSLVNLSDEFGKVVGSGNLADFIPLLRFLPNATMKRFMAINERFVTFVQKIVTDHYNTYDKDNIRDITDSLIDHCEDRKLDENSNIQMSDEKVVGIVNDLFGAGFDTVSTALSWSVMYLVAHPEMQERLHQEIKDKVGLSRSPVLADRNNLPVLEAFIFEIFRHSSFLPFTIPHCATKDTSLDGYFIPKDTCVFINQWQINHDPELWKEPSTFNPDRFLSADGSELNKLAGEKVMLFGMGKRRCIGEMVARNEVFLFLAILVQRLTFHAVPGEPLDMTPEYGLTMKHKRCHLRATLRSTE
# Protocol: (§1) For in vitro inhibition studies, feral Atlantic cod of both sexes were caught off the West coast of Sweden and placed in concrete basins provided with recirculating aerated seawater at 10 ± 2°C and a salinity of 3.0% and alternative light/dark photoperiods of 12 hours. Prior to sampling, the animals were starved and acclimated to these conditions for three weeks. Eight fish were injected i.p. with β-naphthoflavone (BNF), 50 mg/kg b.w. dissolved in peanut oil (5.0 mg/ml). The fish were placed in a 100 l glass aquarium provided with aerated seawater (above) and 30% of the water volume was replaced each day. To eliminate visual stress, the sides of the aquaria were covered with black plastic sheets. After 3 days exposure, the fish were sacrificed. Livers were quickly dissected out and placed in ice-cold homogenization buffer. Livers were pooled from twenty untreated Atlantic cod and from eight BNF treated Atlantic cod, respectively. Microsomal fractions were isolated (above) and stored in aliquots at -80°C. Ethical approval from the Ethical committee of Göteborg license number (99–2003).
# (§2) The CYP1A activity was determined as EROD activity, using resorufin as standard in a SpectraFluor plate reader according to the protocol provided by Nilsen et al.. The CYP3A catalytic activity was measured as BFCOD activity, using HFC as standard. The BFC assay was performed based on a published protocol by Miller et al. and optimized for rainbow trout liver microsomes (T. Hegelund and M. Celander, unpublished data). The reaction mixture consisted of 200 μM BFC, bovine serum albumin (1.6 mg/ml), 2 μM NADPH and 10 μl liver microsomes in a total volume of 200 μl in 0.2 M potassium phosphate buffer pH 7.4 in a 96-multiwell plate using a VICTOR™ 1420 Multilabel Counter from Wallac Sverige AB (Upplands Väsby, Sweden).
# (§3) In vitro inhibition studies were carried out in 96-multiwell plates using a VICTOR™ 1420 Multilabel Counter. […] The substances were dissolved in DMSO and diluted with ethanol. The final concentrations never exceeded 0.01% (v/v) DMSO and 0.001% ethanol (v/v). For CYP1A and CYP3A inhibition studies, pooled liver microsomes from BNF-treated and from untreated Atlantic cod, respectively, were used.
# [2] = molecular target: T2, Hepatic Microsomal CYP1A activity (Gadus morhua, UniProt A0ACE1MZ74); assay: as above; conditions: for Type of inhibition of CYP1A (EROD) activity: cod liver microsomes, Dixon plots
# T2 sequence (A0ACE1MZ74 1-519): T1 sequence (A0ACE1MZ74 1-519)
# Protocol: as §1, §2, §3
# [3] = test system: CYP3A; assay: in vitro; conditions: both, Atlantic cod (Gadus morhua)
# Protocol: as §1, §2, §3
# [4] = test system: Hepatic Microsomal CYP3A activity; assay: In vitro inhibition of CYP3A-mediated BFCOD activity in pooled liver microsomes; conditions: for Type of inhibition of CYP3A (BFCOD) activity: cod liver microsomes, Dixon plots
# Protocol: as §1, §2, §3
# [5] = test system: CYP3A; assay: CYP3A 2D gel electrophoresis immunoblot of pooled liver microsomes from treated fish
# Protocol: (§4) Hatchery reared juvenile Atlantic cod of both sexes with an average body weight (b.w.) around 400 g were supplied by Sekkingstad, Preserving AS, Hordaland, Norway. The fish were kept in 0.5 m^3 indoor glass fibre tanks, at Industrial Laboratory (ILAB), Bergen High Technology Centre (Bergen, Norway), provided with continuously flowing seawater at a temperature of 8 ± 0.5°C and a salinity of 3.4%. Throughout the experimental period, the fish were subjected to continuous 24 h artificial light (the regime the farm used for optimal fish growth). The fish were acclimated to these conditions for five days prior to the experimental period. […] Control fish were injected with 5 ml peanut oil/kg b.w. (vehicle). There were eight to nine fish in each treatment group. When designing the experiment, we could only test one combination due to limited fish numbers.
# (§5) After five days exposure, the fish were sacrificed by a sharp blow to the head. Blood samples were collected from the dorsal vein using a heparinized syringe and the liver was quickly dissected out and placed in ice-cold homogenization buffer (0.1 M sodium phosphate buffer pH 7.4, containing 0.15 M KCl, 1 mM EDTA and 1 mM DTT). Liver microsomes were prepared according to the published protocol by Goksøyr, and stored at -80°C. Total microsomal protein content was measured according to a published method by Bradford, using bovine serum albumin as standard, and a SpectraFluor spectrophotometer from Tecan (Grödig/Salzburg, Austria). Blood plasma was isolated by centrifugation at 5,000 g for 10 min at room temperature and stored at -80°C. Ethical approval licence number of ILAB Bergen: 119. Experiment no. 0204.
# [6] = test system: vitellogenin; assay: Plasma vitellogenin analysis (ELISA); assay type: in vivo, Atlantic cod (Gadus morhua); conditions: i.p., 5 days; for Effect on plasma vitellogenin: in words; for Vitellogenin plasma level: mean (SD), n = 7–8
# Protocol: (§6) Ethical approval licence number of ILAB Bergen: 119. Experiment no. 0204.
# Plasma levels of vitellogenin protein were determined using a non-competitive sandwich ELISA kit and employing rabbit PAb against Atlantic cod vitellogenin from Biosense Laboratories AS (Bergen, Norway). Each plasma sample was diluted (1:20, 1:15,000 and 1:50,000) and 100 μl was analyzed and compared to purified Atlantic cod vitellogenin protein standards (ranging between 0.12 and 2,000 ng/ml). The signal was detected at A492 after 15 min incubation with substrate solution, using a VICTOR™ 1420 Multilabel Counter.
# [7] = test system: 17β-estradiol; assay: Plasma 17β-estradiol analysis (EIA); assay type: in vivo, Atlantic cod (Gadus morhua); conditions: i.p., 5 days; for Effect on 17β-estradiol plasma levels: compared to vehicle or single compounds, in words; for 17β-Estradiol plasma level: mean (SD), n = 8
# Protocol: as §6
# (§7) Plasma levels of 17β-estradiol and testosterone were determined using competitive EIA kits from Cayman Chemical (Ann Arbor, MI, USA). Plasma levels of 11-keto-testosterone were analyzed using a competitive EIA kit, from Biosense Laboratories AS (Bergen, Norway). Plasma from each fish was concentrated (2:1) by extraction once with six volumes diethyl ether and 50 μl was analyzed and compared to purified standard substances. The signals were detected at A405 after 40 min (17β-estradiol), 60 min (testosterone) or 80 min (11-keto-testosterone) incubation with substrate solution, using a VICTOR™ 1420 Multilabel Counter.
# [8] = test system: testosterone; assay: Plasma testosterone analysis (EIA); assay type: in vivo, Atlantic cod (Gadus morhua); conditions: i.p., 5 days
# Protocol: as §4
# as §5, with “Liver microsomes were prepared according to the published protocol by Goksøyr, and stored at -80°C.” left out, “Blood plasma was isolated by centrifugation at 5,000 g for 10 min at room temperature and stored at -80°C. Ethical approval licence number of ILAB Bergen: 119. Experiment no. 0204.” left out
# [9] = test system: 11-keto-testosterone; assay: Plasma 11-keto-testosterone analysis (EIA); assay type: in vivo, Atlantic cod (Gadus morhua); conditions: i.p., 5 days; for Effect on 11-keto-testosterone plasma levels: compared to vehicle or single compounds, in words; for 11-Keto-Testosterone plasma level: mean (SD), n = 6–8
# Protocol: as §6, §7
# [10] = test system: CYP3A; assay: In vivo hepatic CYP3A protein expression (western blot); conditions: i.p., 5 days, KC 12, NP 25, KC+NP 12+25 mg/kg
# Protocol: as §4, with “There were eight to nine fish in each treatment group. When designing the experiment, we could only test one combination due to limited fish numbers.” left out
# (§8) After five days exposure, the fish were sacrificed by a sharp blow to the head. […] Total microsomal protein content was measured according to a published method by Bradford, using bovine serum albumin as standard, and a SpectraFluor spectrophotometer from Tecan (Grödig/Salzburg, Austria). […]
# (§9) Western blot analyses of 40 μg hepatic microsomal protein were carried out using enhanced chemoluminescence (ECL), based on the protocol previously described and PAb raised against rainbow trout CYP1A and CYP3A [41, 55, 56]. The intensity of each protein band was determined by densitometry on scanned fluorograms using Labview 7.0 from National Instruments (Austin, TX, USA).
# [11] = test system: CYP3A; assay: In vitro pre-incubation of liver microsomes followed by CYP3A western blot; conditions: pooled cod liver microsomes pre-incubated 10, 30, 60 min
# Protocol: The CYP3A western blot analysis was performed as described above.
# [12] = test system: Hepatic Microsomal CYP3A activity; design: method as in PMID 15084407; conditions: pooled cod liver microsomes; substrate BFC; published earlier, ref [22]; read-out: IC50, hepatic microsomal CYP3A (BFCOD) activity; cited from earlier work
# [13] = test system: hepatic BFCOD activities; conditions: ref [13],[22]; read-out: IC50, hepatic BFCOD activity in killifish; cited from earlier work
# [14] = test system: hepatic BFCOD activities; conditions: ref [13],[22]; read-out: IC50, hepatic BFCOD activity in rainbow trout; cited from earlier work
# [15] = molecular target: T3, cDNA Expressed Human CYP3A4 (Homo sapiens, UniProt P08684); assay: Inhibition of BFCOD activity in cDNA expressed human CYP3A4 baculovirus supersomes; assay type: biochemical; conditions: substrate BFC
# T3 construct: purchased BD Biosciences Company, Gentest (Woburn, MA, USA); host or cells: baculovirus expression system (supersomes)
# T3 sequence (P08684 whole entry): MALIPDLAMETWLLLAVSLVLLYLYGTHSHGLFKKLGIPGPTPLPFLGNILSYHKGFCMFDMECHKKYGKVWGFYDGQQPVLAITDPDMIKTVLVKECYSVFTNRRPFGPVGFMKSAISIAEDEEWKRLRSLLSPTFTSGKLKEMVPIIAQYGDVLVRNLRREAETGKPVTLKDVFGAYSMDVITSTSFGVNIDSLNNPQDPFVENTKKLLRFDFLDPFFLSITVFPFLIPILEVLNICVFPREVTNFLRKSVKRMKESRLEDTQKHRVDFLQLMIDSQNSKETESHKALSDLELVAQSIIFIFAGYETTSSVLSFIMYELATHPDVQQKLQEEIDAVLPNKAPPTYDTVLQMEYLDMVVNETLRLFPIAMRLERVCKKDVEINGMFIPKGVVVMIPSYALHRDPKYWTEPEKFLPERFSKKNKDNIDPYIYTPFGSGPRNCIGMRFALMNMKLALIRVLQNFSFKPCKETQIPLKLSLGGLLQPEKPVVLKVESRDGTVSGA
# [16] = test system: CYP1A; assay: In vivo hepatic CYP1A enzyme (EROD) activity after i.p. exposure; conditions: 5 days, NP 25 mg/kg, ethynylestradiol 5 mg/kg
# Protocol: as §4, §8
# The CYP1A activity was determined as EROD activity, using resorufin as standard in a SpectraFluor plate reader according to the protocol provided by Nilsen et al.. The CYP3A catalytic activity was measured as BFCOD activity, using HFC as standard. […]
# [17] = test system: CYP1A; assay: In vivo hepatic CYP1A protein expression (western blot); conditions: i.p., 5 days, NP 25 mg/kg, ethynylestradiol 5 mg/kg
# Protocol: as §4, with “There were eight to nine fish in each treatment group. When designing the experiment, we could only test one combination due to limited fish numbers.” left out
# as §8, §9
# [18] = no [S] level stated, Dixon plot
# [19] = 2D gel immunoblot, pooled liver microsomes of 8–9 treated fish
Compound,IC50 [1],"Ki [1, 18]",Type of inhibition of CYP1A (EROD) activity [2],"IC50 ([3]; microsomes, pH 7.4)",Type of inhibition of CYP3A (BFCOD) activity [4],Effect on plasma vitellogenin [6],Vitellogenin plasma level [6],Effect on 17β-estradiol plasma levels [7],17β-Estradiol plasma level [7],Effect on 11-keto-testosterone plasma levels [9],11-Keto-Testosterone plasma level [9],Effect on CYP3A protein expression [10],"Induction of the more basic CYP3A-immunoreactive isoform (pI around 5.1) [5, 19]",other results
"C#C[C@]1(O)CC[C@H]2[C@@H]3CCc4cc(O)ccc4[C@H]3CC[C@@]21C [ethynylestradiol, 17α-ethynylestradiol]",20 µM,5.4 to 10.3 µM,non-competitive inhibitor,40 µM,uncompetitive inhibitor,induction,"4,350 (1,463) ^a μg/ml plasma",no statistically significant effect,100 (69) pg/ml plasma,no statistically significant effect,35 (23) pg/ml plasma,,,"Ki ([1]; high [S], high [S] 7-ethoxyresorufin, one representative Dixon plot): 10.3 µM; Ki ([1]; low [S], low [S] 7-ethoxyresorufin, one representative Dixon plot): 5.4 µM; Ki ([3]; pooled liver microsomes from untreated Atlantic cod, pH 7.4, probe BFC): 54 to 95 µM; Ki ([3]; pooled liver microsomes from untreated Atlantic cod, pH 7.4, probe BFC (high [S])): 95 µM; Ki ([3]; pooled liver microsomes from untreated Atlantic cod, pH 7.4, probe BFC (low [S])): 54 µM; Induction of the more basic CYP3A-immunoreactive isoform (pI around 5.1) ([5]; in vivo): did not induce; Effect on testosterone plasma levels ([8]; compared to vehicle or single compounds, in words): no statistically significant effect; Testosterone plasma level ([8]; mean (SD), n = 7–8): 90 (40) pg/ml plasma"
CC(=O)N1CCN(c2ccc(OCC3COC(Cn4ccnc4)(c4ccc(Cl)cc4Cl)O3)cc2)CC1 (stereo not shown) [ketoconazole],,,,,non-competitive inhibitor,,0.6 (0.9) μg/ml plasma,,60 (26) pg/ml plasma,,71 (46) pg/ml plasma,no effect,inducible; also recorded: induced,"Ki ([3]; microsomes, pH 7.4): […]; Ki, hepatic microsomal CYP3A (BFCOD) activity [4, 18]: sub-μM range; Effect of pre-incubation on hepatic microsomal CYP3A protein levels [11]: no effects; IC50 [12]: 0.3 µM; IC50 [13]: 0.01 µM; IC50 [14]: 0.1 µM"
"CCCCCCCCCc1ccc(O)cc1 [nonylphenol, 4-nonylphenol]",5.2 µM,~3.5 µM,non-competitively inhibited,160 µM,,induction,266 (199) ^a μg/ml plasma,no statistically significant effect,76 (52) pg/ml plasma,no statistically significant effect,42 (67) pg/ml plasma,no effect,did not induce,"Type of inhibition of CYP1A (EROD) activity ([2]; listed as Nonylphenol): non-competitive inhibitor; Ki ([2]; read-out: Ki, hepatic microsomal CYP1A (EROD) activity, no [S] level stated, Dixon plot, listed as Nonylphenol (NP)): 3.5 µM; IC50 [15]: 35 µM; Decrease in CYP1A (EROD) activity compared to fish exposed to ketoconazole + nonylphenol [16]: 65%; Reduction of CYP1A (EROD) activity compared to vehicle treated fish [16]: 41% and 40%; Effect on CYP1A protein expression [17]: no effect"
